US12319664B2, “Herbicidally active 3-phenylisoxazoline-5-carboxamides of cyclopentenylcarboxylic acid derivatives” (Bayer Aktiengesellschaft, priority 2018, dated 2025)

Experiments:
ALOMY = assay: Post-emergence herbicidal action against ALOMY; format: in vivo, Alopecurus myosuroides; settings: application rate 80 g/ha, rated visually after about 3 weeks
Procedure, shortened: (§1)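 Test plants grown from seed in greenhouse pots of sandy loam were treated post-emergence at the one-leaf stage. Damage, from 0% (like controls) to 100% (plants died), was assessed visually about 3 weeks later.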

AVEFA = assay: Post-emergence herbicidal action against AVEFA; format: in vivo, Avena fatua; settings: application rate 80 g/ha, rated visually after about 3 weeks
Procedure, shortened: as §1

ECHCG = assay: Post-emergence herbicidal action against ECHCG; format: in vivo, Echinochloa crus-galli; settings: application rate 80 g/ha, rated visually after about 3 weeks
Procedure, shortened: as §1

LOLRI = assay: Post-emergence herbicidal action against LOLRI; format: in vivo, Lolium rigidum; settings: application rate 80 g/ha, rated visually after about 3 weeks
Procedure, shortened: as §1

SETVI = assay: Post-emergence herbicidal action against SETVI; format: in vivo, Setaria viridis; settings: application rate 80 g/ha, rated visually after about 3 weeks
Procedure, shortened: as §1

ABUTH = assay: Post-emergence herbicidal action against ABUTH; format: in vivo, Abutilon theophrasti; settings: application rate 80 g/ha, rated visually about 3 weeks after treatment
Procedure, shortened: as §1

AMARE = assay: Post-emergence herbicidal action against AMARE; format: in vivo, Amaranthus retroflexus; settings: application rate 80 g/ha, rated visually about 3 weeks after treatment
Procedure, shortened: as §1

PHBPU = assay: Post-emergence herbicidal action against PHBPU; format: in vivo, Pharbitis purpurea; settings: application rate 80 g/ha, rated visually about 3 weeks after treatment
Procedure, shortened: as §1

STEME = assay: Post-emergence herbicidal action against STEME; format: in vivo, Stellaria media; settings: application rate 80 g/ha, rated visually about 3 weeks after treatment
Procedure, shortened: as §1

VIOTR = assay: Post-emergence herbicidal action against VIOTR; format: in vivo, Viola tricolor; settings: application rate 80 g/ha, rated visually about 3 weeks after treatment
Protocol: [table] 2. Post-emergence herbicidal action against harmful plants and crop plant compatibility Seeds of monocotyledonous and dicotyledonous weeds and crop plants are placed in sandy loam in plastic or wood-fibre pots, covered with soil and cultivated in a greenhouse under controlled growth conditions. 2 to 3 weeks after sowing, the test plants are treated at the one-leaf stage. The compounds of the invention, formulated in the form of wettable powders (WP) or as emulsion concentrates (EC), are then sprayed onto the green parts of the plants as aqueous suspension or emulsion with addition of 0.5% additive at a water application rate of 600 l/ha (converted). After the test plants have been kept in the greenhouse under optimum growth conditions for about 3 weeks, the activity of the preparations is rated visually in comparison to untreated controls. For example, 100% activity=the plants have died, 0% activity=like control plants.

VERPE = assay: Post-emergence herbicidal action against VERPE; format: in vivo, Veronica persica; settings: application rate 80 g/ha
Procedure, shortened: as §1

HORMU = assay: Post-emergence herbicidal action against HORMU; format: in vivo, Hordeum murinum; settings: application rate 80 g/ha
Procedure, shortened: as §1

POLCO = assay: Post-emergence herbicidal action against POLCO; format: in vivo, Polygonum convolvulus; settings: application rate 80 g/ha, rated visually about 3 weeks after treatment
Procedure, shortened: as §1

Row | SMILES | Herbicidal action against [%] ALOMY (ALOMY) | Herbicidal action against [%] AVEFA (AVEFA) | Herbicidal action against [%] ECHCG (ECHCG) | Herbicidal action against [%] LOLRI (LOLRI) | Herbicidal action against [%] SETVI (SETVI) | Herbicidal action against [%] ABUTH (ABUTH) | Herbicidal action against [%] AMARE (AMARE) | Herbicidal action against [%] PHBPU (PHBPU) | Herbicidal action against [%] STEME (STEME) | Herbicidal action against [%] VIOTR (VIOTR) | Herbicidal action against [%] VERPE (VERPE) | Herbicidal action against [%] HORMU (HORMU) | Herbicidal action against [%] POLCO (POLCO)
1 | COC(=O)C1=CC[C@H](NC(=O)C2(C)CC(c3cc(F)cc(F)c3)=NO2)C1 (stereo partly shown) [III-10] | 100% | 100% | 90% | 100% | 90% | 90% | 90% | 90% | 90% | 90% | 90% | 100% | 
2 | O=C(C1C=CC(NC(=O)C2(C(F)(F)F)CC(c3cc(F)cc(F)c3)=NO2)C1)N1CCCCO1 (mixture of isomers) [II-31] | 90% | 100% | 90% | 90% | 80% | 90% | 80% |  | 90% | 90% | 90% | 80% | 90%
3 | C=CC1(C(=O)NC2C=CC(C(=O)OC(C)(C)C)C2)CC(c2cc(F)cc(F)c2)=NO1 (mixture of isomers) [Example I-060] | 90% | 90% | 90% |  |  |  | 80% | 80% |  | 80% |  | 90% | 
4 | CC(C)(C#N)NC(=O)C1C=CC(NC(=O)C2(C)CC(c3cc(F)cc(F)c3)=NO2)C1 (mixture of isomers) [II-10] | 90% | 90% | 90% | 90% |  |  | 80% | 90% | 90% | 90% | 80% |  | 90%
5 | CCCS(=O)(=O)NC(=O)C1C=CC(NC(=O)C2(C(F)(F)F)CC(c3cc(F)cc(F)c3)=NO2)C1 (mixture of isomers) [II-33] |  | 100% | 80% | 90% | 80% | 80% | 90% |  | 80% | 90% | 80% | 90% | 90%
6 | COC(=O)C(C)(C)NC(=O)C1C=CC(NC(=O)C2(C(F)(F)F)CC(c3cc(F)cc(F)c3)=NO2)C1 (mixture of isomers) [II-36] | 90% | 100% |  | 90% |  |  | 90% | 90% |  | 90% | 80% | 80% | 90%
7 | COC(=O)C1C=CC(NC(=O)C2(C)CC(c3cccc(C#N)c3)=NO2)C1 (mixture of isomers) [Example I-080] | 90% | 100% | 90% | 90% | 80% |  | 90% | 90% | 90% | 80% | 90% | 90% | 90%
8 | COC(=O)[C@@H]1C=C[C@H](NC(=O)C2(C(F)(F)F)CC(c3cc(F)cc(C#N)c3)=NO2)C1 (single isomer, unassigned) [Example I-097] | 100% | 90% | 90% | 100% | 90% |  | 80% | 80% | 80% | 80% | 80% | 90% | 80%
9 | N#Cc1cc(F)cc(C2=NOC(C(=O)NC3C=CC(C(=O)OCCCl)C3)(C(F)(F)F)C2)c1 (mixture of isomers) [Example I-089] | 100% | 100% | 90% | 100% | 80% | 90% | 90% |  | 90% | 90% | 90% | 100% | 90%
10 | CCOC(=O)C1C=CC(NC(=O)C2(C(F)(F)F)CC(c3cccc(C#N)c3)=NO2)C1 (mixture of isomers) [Example I-072] | 90% | 100% | 90% | 90% | 80% | 80% | 80% |  | 80% | 80% | 80% | 90% | 90%
11 | COc1cc(OC)cc(C2=NOC(C(=O)NC3C=CC(C(=O)OCC(F)(F)F)C3)(C(F)(F)F)C2)c1 (mixture of isomers) [Example I-052] | 100% | 100% | 80% | 100% | 90% | 90% | 90% | 80% | 80% | 80% | 80% | 100% | 
